Test results as given in publication PMC11755562, “Peptide Inhibitor Assay for Allocating Functionally Important Accessible Sites Throughout a Protein Chain: Restriction Endonuclease EcoRI as a Model Protein System” (BioTech, 2024).
Entries after “also recorded” stand apart in the source; their conditions may differ.

Columns and labels:
EcoRI [1] = molecular target: T1, EcoRI (Escherichia coli, UniProt P00642); experiment: Peptide inhibitor assay (PIA): EcoRI digestion of pCRII-TOPO-OR23 plasmid, fluorescence intensity of the excised OR23 band on agarose gel; assay type: biochemical; conditions: 3 h; for level of inhibitory effect on EcoRI (in words): EcoRI:peptide 1:500, relative fluorescence intensity, n = 3
T1 construct: The first M is removed after translation in this protein; purchased New England Biolabs
Description: Peptide synthesis was performed by GenScript Japan (Tokyo, Japan). All peptides were confirmed to be more than 75% pure via high-performance liquid chromatography (HPLC) and to have theoretical molecular weights via mass spectrometry (MS). The peptides were dissolved in DMSO (dimethyl sulfoxide) and were prepared at 5.59 × 10^−9 mol/μL (5.59 mM). When 1.0 μL of this peptide mixture was mixed in a tube for the inhibition of EcoRI catalytic activity, the molar ratio of EcoRI to peptide was 1:500. This concentration in molar equivalence was used throughout this study unless otherwise noted.
Purified and concentrated EcoRI (20,000 U/mL, approximately 338 μg/mL, 1.12 × 10^−[…]) was obtained from New England Biolabs (Ipswich, MA, USA). To quantify and visualize the inhibitory effects of the peptides, the enzymatic reaction conditions were set so that at least three hours of incubation were required to completely digest the substrate plasmid DNA with EcoRI. To do so, we used a low Mg^2+ concentration (0.015 mM) in the reaction mixture in contrast to the optimum concentration of Mg^2+ for EcoRI (10 mM).
(§1) All master solutions and samples were prepared on ice. A single reaction tube contained the following common ingredients: autoclaved DNase-free RNase-free deionized H2O (12.5 μL) (Nippon Gene), 10× NE Buffer Mg^2+-free (2.0 μL), pCRII-TOPO-OR23 plasmid DNA (2.0 μL of 40 ng/μL solution), MgCl2 (1.5 μL of 0.20 mM solution), and EcoRI (1.0 μL). A master solution containing these ingredients without DMSO or a peptide was first prepared for the number of sample tubes. The master solution was aliquoted into 1.5 mL spin tubes (19.0 μL per tube). Then, 1.0 μL of DMSO or a peptide sample was added, and the mixture was incubated at 37 °C. A negative control with DMSO but without a peptide (“no peptide” control) was run in every assay. When the digestion efficiency was compared, another negative control with autoclaved DNase-free RNase-free H2O without EcoRI was prepared. After the reaction, the samples were quickly cooled on ice for ten minutes and then stored at −80 °C until agarose gel electrophoresis. The above protocol was conducted for all peptides (including BP19.5, BP19.5N, and BP19.5C) used in the present study unless otherwise noted.
To quantify EcoRI activity after incubation of a reaction mixture, digested pCRII-TOPO-OR23 plasmid DNA was examined via agarose gel electrophoresis. We first prepared a 25 mL solution of 1.0% agarose (Nippon Gene) in TAE (Tris-acetate-EDTA) buffer (Promega, Madison, WI, USA) to produce an agarose gel. An ethidium bromide solution (0.5 μL of 10 mg/mL) (Promega) was added before gelation. After incubation with EcoRI, the fluorescence intensity of the band of the excised OR23 fragment was measured via an ImageQuant LAS4000 (GE Healthcare Japan, Tokyo, Japan) with the following conditions: “Exposure Type”: Precision; “Exposure Time”: Manual 1/8 sec; “Sensitivity/Resolution”: Standard; and “Fluorescent Method”: Epi illumination; EtBr; UV (Trans UV) light; 6-5DF50 Filter; and F2.8 Iris.
For statistical analyses, Student’s t-test (unpaired and bi-sided), Dunnett’s test, and Pearson correlation analysis were performed via Microsoft Excel (Office 365) and JSTAT (Yokohama, Japan). The Dunnett’s test was performed for each experimental group that was examined simultaneously in the laboratory, in comparison to the “no peptide” control group that was examined simultaneously. The repeated measure mode of the Dunnett’s test was used on the assumption that there was no interaction between samples.

EcoRI [2] = molecular target: T1, EcoRI; experiment: Nonspecific nuclease activity of EcoRI reaction mixture with peptide (plasmid DNA degradation); assay type: biochemical; conditions: EcoRI plus peptide 1:500, 3 h; n = 3
Description: A recombinant plasmid, pCRII-TOPO (Invitrogen, Waltham, MA, USA), containing a PCR fragment of the full-length cDNA (978 bp) of the mouse odorant receptor OR23 [82, 83, 84, 85, 86] at the EcoRI cloning site (GAATTC) was used as a DNA substrate for EcoRI. […] This pCRII-TOPO-OR23 plasmid was prepared from TOP10F’ Escherichia coli (Invitrogen) using ATP Plasmid Mini Kit (ATP Biotech, Taipei, ROC). The plasmid solution was prepared at 40 ng/μL by adding autoclaved DNase-free RNase-free deionized H2O (Nippon Gene, Tokyo, Japan). The DNA concentrations were measured with a Qubit fluorometer (Invitrogen).
as §1
This reaction mixture containing EcoRI and BP19.5 appeared to degrade the plasmid DNA entirely. […] The DNA concentration at 3 h was 3.297 ± 0.006 ng/μL without any peptide in the reaction mixture and 0.332 ± 0.003 ng/μL with BP19.5, indicating a statistically significant difference (n = 3; unpaired bi-sided Student’s t-test; p = 1.6 × 10^−11). […] Therefore, BP19.5 and its derivatives are likely to cause EcoRI to become a nonspecific nuclease. In other words, BP19.5 was likely a specificity/activity modifier of EcoRI instead of an inhibitor.

T1 sequence (P00642 2-277): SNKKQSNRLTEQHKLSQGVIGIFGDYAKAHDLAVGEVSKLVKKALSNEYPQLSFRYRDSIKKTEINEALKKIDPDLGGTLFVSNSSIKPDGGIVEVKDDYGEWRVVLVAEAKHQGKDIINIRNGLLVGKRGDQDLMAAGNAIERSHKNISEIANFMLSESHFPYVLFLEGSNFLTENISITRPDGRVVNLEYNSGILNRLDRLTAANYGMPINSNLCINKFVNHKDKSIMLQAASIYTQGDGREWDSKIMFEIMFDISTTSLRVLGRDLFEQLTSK

Sequence	level of inhibitory effect on EcoRI (in words) (EcoRI [1])	relative fluorescence intensity of excised OR23 fragment (EcoRI [1]; relative to no peptide, EcoRI:peptide 1:500 molar ratio, 37 °C, 0.015 mM Mg2+, mean of n = 3)	plasmid DNA degradation / nonspecific nuclease induction (agarose gel electrophoresis, in words) (EcoRI [2])
NLCINKFVNHKDK [BP20]	especially notable; also recorded: strong inhibitory effect; also recorded: most effective	less than 0.3	does not induce nuclease activity
AANYGMPINSNL [BP19]	did not show high inhibition		did not have such an induction ability
